Source: patent US10149472B2, “Chitin oligomers for use in promoting non-leguminous plant growth and development” (Wisconsin Alumni Research Foundation, priority 2015, dated 2018)

System: pea (the legume Pisum sativum)
Assay: Seed treatment of pea in pots
Type: in vivo
Settings: seed coating 125 μl of 10^−6 M, 2 weeks after planting, * significant at P < 0.05
Method: Five grams of pea seeds (the legume Pisum sativum) were added to three separate 50 ml tubes. A water solution containing 0.5% ethanol was added to the control tube, 125 μl of 10^−6M CO4 solution was added to the CO4 tube, and 125 μl of 10^−6 M CO8 solution was added to the CO8 tube. Each tube was then shaken to coat the seeds. Seeds were potted immediately following treatment into moistened SUNGRO® potting mix in 4×6×6 cm pots. Plants were watered by pouring water into the tray containing the pots up to about ¾ inch high. After sowing the seeds, the pots were randomly distributed (16 pots per treatment) throughout the tray and placed underneath continuous light at room temperature for 1 week. Liquid Fahräeus medium (plant fertilizer solution; see above) was applied every 2 days or when necessary. After a week, the pots were placed underneath 10 h light and 14 h dark cycle at room temperature for 1 week. After 1 week underneath 10 h light and 14 h dark cycle (2 weeks after planting), the plants were carefully removed from the pots, and as much soil as possible was shaken off. The remaining soil was removed by submerging the root system into a beaker of water. The number of primary roots (PR), lateral roots (LR), root system length (RSL) and dry weight (DW) were then measured for all plants.

With `CC(=O)N[C@H]1[C@H](O[C@H]2[C@H](O)[C@@H](NC(C)=O)[C@H](O[C@H]3[C@H](O)[C@@H](NC(C)=O)[C@H](O[C@H]4[C@H](O)[C@@H](NC(C)=O)C(O)O[C@@H]4CO)O[C@@H]3CO)O[C@@H]2CO)O[C@H](CO)[C@@H](O[C@@H]2O[C@H](CO)[C@@H](O[C@@H]3O[C@H](CO)[C@@H](O[C@@H]4O[C@H](CO)[C@@H](O[C@@H]5O[C@H](CO)[C@@H](O)[C@H](O)[C@H]5NC(C)=O)[C@H](O)[C@H]4NC(C)=O)[C@H](O)[C@H]3NC(C)=O)[C@H](O)[C@H]2NC(C)=O)[C@@H]1O` (some centres unmarked) [CO8, octa-N-acetyl-chitooctaose] the “Average Lateral Roots” value was “significantly decreased” and the “Average Primary Roots” value was “significantly decreased”.
